# Measurements published in patent EP4211126B1, “PHOTOCHEMICAL SYNTHESIS OF LOW PARTICLE SIZE MONODISPERSE GOLD NANOPARTICLES, LOADING WITH CANCER DRUG, AND DETERMINATION OF CYTOTOXIC ACTIVITY OF THE SAME” (Yildiz Teknik Universitesi, priority 2020, dated 2022).
# Test system: acute promyelocytic leukemia (HL-60) cells
# Assay: MTT colorimetric cytotoxicity test
# Format: cell-based
# Details: 72 hours of incubation, compared with DOXO in free form
# Method: MTT (3- (4,5-dimethylthiazol-2-yl) -2,5-diphenyl-2H-tetrazolium bromide) colorimetric test allows the quantitation of living cells whose mitochondrial activity is maintained in the culture medium. […] P<0.05 was considered significant.
# According to MTT experiments, after 72 hours of incubation, the effect of DOXO in free form, i.e., not loaded on AuNps, as well as the DOXO-loaded AuNps was investigated for acute promyelocytic leukemia (HL-60) and chronic myeloid leukemia (K562) cells, and the results are given in Figure 5 and Figure 6, respectively.
structure (smiles),measurement,value
"COc1cccc2c1C(=O)c1c(O)c3c(c(O)c1C2=O)C[C@@](O)(C(=O)CO)C[C@@H]3O[C@H]1C[C@H](N)[C@H](O)[C@H](C)O1 [DOXO, Doxorubicin]",cytotoxic effect (cell viability),should be used in higher amounts in order to have a similar cytotoxic effect
